One data set concerns the target ALK1/ACVRL1 (Homo sapiens, UniProt P37023). Nature of the data set: Kinase assay (33P-ATP filter-binding), ALK1. The class given is biochemical. The conditions noted are these: read-out: Kinase Selectivity ALK1/ACVRL1. The procedure:
(§1) The kinase assays were carried out briefly as follows. Substrate was prepared in Base Reaction Buffer (20 mM Hepes (pH 7.5), 10 mM MgCl2, 1 mM EGTA, 0.02% Brij35, 0.02 mg/ml BSA, 0.1 mM Na3VO4, 2 mM DTT, 1% DMSO). The indicated kinases was delivered into the substrate solution and allowed to gently mix. Next, the specific compound was delivered in DMSO into the kinase mixture by Acoustic technology (Echo550; nanoliter range), and allowed to incubate for 20 minutes at room temperature. Next, ^33P-ATP was delivered into the reaction mixture to initiate the reaction and allowed to incubate at room temperature. After 2 hours, the reactions were spotted onto P81 ion exchange paper and the kinase activity is detected by the filter-binding method.

Another data set concerns the target ALK3/BMPR1A (Homo sapiens, UniProt P36894). Description: Kinase assay (33P-ATP filter-binding), ALK3. The class given is biochemical. The conditions noted are these: 1 mM; read-out: Kinase Selectivity ALK3/BMPR1A (1 mM). The procedure: as §1
For another data set, the target named is T1, ALK4 (Homo sapiens, UniProt P36896).
T1 sequence (P36896 24-505): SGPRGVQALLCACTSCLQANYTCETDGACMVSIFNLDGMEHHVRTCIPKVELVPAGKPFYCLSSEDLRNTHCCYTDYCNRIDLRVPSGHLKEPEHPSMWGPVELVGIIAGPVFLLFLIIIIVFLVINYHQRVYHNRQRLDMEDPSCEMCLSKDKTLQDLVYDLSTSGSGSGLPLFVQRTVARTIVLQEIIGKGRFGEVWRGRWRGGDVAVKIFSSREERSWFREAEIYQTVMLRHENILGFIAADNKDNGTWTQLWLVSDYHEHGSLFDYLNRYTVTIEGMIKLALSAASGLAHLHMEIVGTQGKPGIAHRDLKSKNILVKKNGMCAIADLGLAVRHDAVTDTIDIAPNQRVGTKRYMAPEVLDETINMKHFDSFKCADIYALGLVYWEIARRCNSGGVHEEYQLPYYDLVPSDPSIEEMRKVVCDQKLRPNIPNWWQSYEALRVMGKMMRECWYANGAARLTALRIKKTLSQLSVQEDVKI
Description: Kinase assay (33P-ATP filter-binding), ALK4. In kind it is biochemical. Conditions: read-out: Kinase Selectivity ALK4. The procedure:
as §1

A further data set concerns the target T2, ALK5 (Homo sapiens, UniProt P36897).
T2 sequence (P36897 34-503): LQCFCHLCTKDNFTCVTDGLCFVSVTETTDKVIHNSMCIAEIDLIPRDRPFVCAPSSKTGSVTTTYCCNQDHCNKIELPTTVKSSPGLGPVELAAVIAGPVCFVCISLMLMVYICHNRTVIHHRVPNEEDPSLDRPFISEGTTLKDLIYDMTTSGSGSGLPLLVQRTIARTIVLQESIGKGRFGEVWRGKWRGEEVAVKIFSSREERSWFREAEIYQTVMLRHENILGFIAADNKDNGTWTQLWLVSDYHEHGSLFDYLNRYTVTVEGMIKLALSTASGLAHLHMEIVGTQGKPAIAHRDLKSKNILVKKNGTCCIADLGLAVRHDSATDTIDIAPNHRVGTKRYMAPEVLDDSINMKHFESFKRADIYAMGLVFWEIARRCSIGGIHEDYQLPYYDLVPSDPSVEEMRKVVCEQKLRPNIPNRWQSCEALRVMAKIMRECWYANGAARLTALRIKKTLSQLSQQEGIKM
Nature of the data set: Kinase assay (33P-ATP filter-binding), ALK5. In kind it is biochemical. The conditions noted are these: read-out: Kinase Selectivity ALK5. The procedure:
as §1

A further data set deals with ALK6 (Homo sapiens, UniProt O00238). Description: Kinase assay (33P-ATP filter-binding), ALK6. In kind it is biochemical. Conditions: read-out: Kinase Selectivity ALK6. The procedure: as §1
The target of the next data set is T3, BMPR2 (Homo sapiens, UniProt Q13873).
T3 sequence (Q13873 27-1038): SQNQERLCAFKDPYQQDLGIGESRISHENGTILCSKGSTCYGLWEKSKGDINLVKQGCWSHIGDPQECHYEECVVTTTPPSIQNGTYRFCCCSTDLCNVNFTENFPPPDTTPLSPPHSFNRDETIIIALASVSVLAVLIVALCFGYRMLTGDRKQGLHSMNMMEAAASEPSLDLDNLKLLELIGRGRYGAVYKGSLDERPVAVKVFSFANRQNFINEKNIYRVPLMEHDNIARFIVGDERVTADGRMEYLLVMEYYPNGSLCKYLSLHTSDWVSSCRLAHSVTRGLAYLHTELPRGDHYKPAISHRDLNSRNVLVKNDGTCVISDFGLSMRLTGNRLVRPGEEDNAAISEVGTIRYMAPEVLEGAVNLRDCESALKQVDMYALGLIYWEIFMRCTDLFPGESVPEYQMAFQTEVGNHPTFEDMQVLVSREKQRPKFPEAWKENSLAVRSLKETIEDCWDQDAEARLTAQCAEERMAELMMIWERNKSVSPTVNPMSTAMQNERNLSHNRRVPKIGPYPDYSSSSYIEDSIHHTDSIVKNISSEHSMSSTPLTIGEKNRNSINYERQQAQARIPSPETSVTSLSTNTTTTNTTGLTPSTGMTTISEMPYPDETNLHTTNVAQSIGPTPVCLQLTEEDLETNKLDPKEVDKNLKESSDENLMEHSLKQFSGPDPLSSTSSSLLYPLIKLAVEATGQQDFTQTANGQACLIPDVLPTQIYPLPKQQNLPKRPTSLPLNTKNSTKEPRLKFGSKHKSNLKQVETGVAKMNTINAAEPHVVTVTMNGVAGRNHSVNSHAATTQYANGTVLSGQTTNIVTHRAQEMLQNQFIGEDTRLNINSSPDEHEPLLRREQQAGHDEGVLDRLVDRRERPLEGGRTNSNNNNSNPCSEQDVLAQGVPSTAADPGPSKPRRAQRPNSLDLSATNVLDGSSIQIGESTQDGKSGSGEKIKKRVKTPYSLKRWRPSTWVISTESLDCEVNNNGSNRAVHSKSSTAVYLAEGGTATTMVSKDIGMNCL
Nature of the data set: Kinase assay (33P-ATP filter-binding), BMPR2. In kind it is biochemical. Conditions: read-out: Kinase Selectivity BMPR2. The procedure: as §1

In the next data set the target is TGFbR2 (Homo sapiens, UniProt P37173). Description: Kinase assay (33P-ATP filter-binding), TGFbR2. The class given is biochemical. The conditions noted are these: read-out: Kinase Selectivity TGFbR2. The procedure:
as §1

For the next data set, the target named is KDR (Homo sapiens, UniProt P35968). Nature of the data set: Kinase assay (33P-ATP filter-binding), KDR. In kind it is biochemical. Conditions: read-out: Kinase Selectivity KDR. The procedure:
as §1

In another data set the target is PDGFRb (Homo sapiens, UniProt P09619). Description: Kinase assay (33P-ATP filter-binding), PDGFRb. In kind it is biochemical. Conditions: read-out: Kinase Selectivity PDGFRb. The procedure:
as §1

Data set [1] concerns BMP-responsive C2C12 mouse myoblast cells stimulated with BMP4. Nature of the data set: BMP4 cell assay (Id1 promoter-firefly luciferase reporter). In kind it is cell-based. Conditions: BMP4 50 ng/mL, overnight. The procedure:
The BMP4 cell assay were carried out briefly as follows. Stably transfected BMP-responsive C2C12 mouse myoblast cells (containing the Idl promoter-firefly luciferase reporter) were seeded in 96-well plates and incubated overnight with the compounds and BMP4 (50 ng/mL). The cells were then lysed, and cell extracts were then subjected to the firefly luciferase assay using Steady-Glo luciferase assay kit (Promega). The results were normalized to cell titers, as measured using Cell Titer-Glo luminescence assay (Promega). […] Relative activity was quantified by the ratio of firefly to Renilla luciferase activities using the dual luciferase assay kit (Promega).
In general terms: Reporter assays use an easily measured gene product as a stand-in for the process of interest.

Data set [2] in a line: Intrinsic clearance, human. In kind it is in vitro ADME. Conditions: for CLint scaled: human.
The nature of data set [3]: Intrinsic clearance, mouse. The class given is in vitro ADME. Conditions: for CLint scaled: mouse.
The nature of the next data set: Protein binding, human. In kind it is in vitro ADME.
Another data set in a line: Protein binding, mouse. In kind it is in vitro ADME.
Setting [4] is: CL-Hep, value in parentheses, read-out: Intrinsic Clearance Human (CL-Hep).

Chain of ALK6 (O00238 14-502): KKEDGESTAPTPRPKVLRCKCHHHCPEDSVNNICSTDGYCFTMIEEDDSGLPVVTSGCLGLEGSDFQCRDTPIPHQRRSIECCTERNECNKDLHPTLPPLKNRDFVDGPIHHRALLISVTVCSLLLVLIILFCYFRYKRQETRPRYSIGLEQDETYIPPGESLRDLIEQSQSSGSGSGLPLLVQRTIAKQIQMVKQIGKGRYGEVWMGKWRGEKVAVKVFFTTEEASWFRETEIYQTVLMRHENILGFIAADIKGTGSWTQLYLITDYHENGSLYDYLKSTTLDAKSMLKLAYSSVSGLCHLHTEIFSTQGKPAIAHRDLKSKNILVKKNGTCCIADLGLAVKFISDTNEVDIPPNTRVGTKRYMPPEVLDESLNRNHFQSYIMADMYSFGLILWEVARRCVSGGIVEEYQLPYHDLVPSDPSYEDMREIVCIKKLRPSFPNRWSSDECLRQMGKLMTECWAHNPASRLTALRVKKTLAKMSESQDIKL
Chain of ALK3/BMPR1A (P36894 24-532): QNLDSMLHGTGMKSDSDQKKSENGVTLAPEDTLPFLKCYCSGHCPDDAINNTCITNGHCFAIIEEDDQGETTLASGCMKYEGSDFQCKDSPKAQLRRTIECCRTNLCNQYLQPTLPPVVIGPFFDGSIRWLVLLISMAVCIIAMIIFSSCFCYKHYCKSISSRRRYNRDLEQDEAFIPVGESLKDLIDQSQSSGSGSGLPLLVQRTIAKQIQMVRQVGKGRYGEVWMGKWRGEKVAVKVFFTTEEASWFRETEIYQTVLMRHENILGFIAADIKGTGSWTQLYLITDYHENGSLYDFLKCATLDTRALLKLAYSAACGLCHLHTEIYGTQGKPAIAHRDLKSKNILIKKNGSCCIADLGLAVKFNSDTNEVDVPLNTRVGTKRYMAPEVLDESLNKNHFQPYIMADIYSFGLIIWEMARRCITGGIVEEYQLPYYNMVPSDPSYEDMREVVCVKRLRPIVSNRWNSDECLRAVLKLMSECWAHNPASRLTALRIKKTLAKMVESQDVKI
Chain of KDR (P35968 20-1356, species assumed): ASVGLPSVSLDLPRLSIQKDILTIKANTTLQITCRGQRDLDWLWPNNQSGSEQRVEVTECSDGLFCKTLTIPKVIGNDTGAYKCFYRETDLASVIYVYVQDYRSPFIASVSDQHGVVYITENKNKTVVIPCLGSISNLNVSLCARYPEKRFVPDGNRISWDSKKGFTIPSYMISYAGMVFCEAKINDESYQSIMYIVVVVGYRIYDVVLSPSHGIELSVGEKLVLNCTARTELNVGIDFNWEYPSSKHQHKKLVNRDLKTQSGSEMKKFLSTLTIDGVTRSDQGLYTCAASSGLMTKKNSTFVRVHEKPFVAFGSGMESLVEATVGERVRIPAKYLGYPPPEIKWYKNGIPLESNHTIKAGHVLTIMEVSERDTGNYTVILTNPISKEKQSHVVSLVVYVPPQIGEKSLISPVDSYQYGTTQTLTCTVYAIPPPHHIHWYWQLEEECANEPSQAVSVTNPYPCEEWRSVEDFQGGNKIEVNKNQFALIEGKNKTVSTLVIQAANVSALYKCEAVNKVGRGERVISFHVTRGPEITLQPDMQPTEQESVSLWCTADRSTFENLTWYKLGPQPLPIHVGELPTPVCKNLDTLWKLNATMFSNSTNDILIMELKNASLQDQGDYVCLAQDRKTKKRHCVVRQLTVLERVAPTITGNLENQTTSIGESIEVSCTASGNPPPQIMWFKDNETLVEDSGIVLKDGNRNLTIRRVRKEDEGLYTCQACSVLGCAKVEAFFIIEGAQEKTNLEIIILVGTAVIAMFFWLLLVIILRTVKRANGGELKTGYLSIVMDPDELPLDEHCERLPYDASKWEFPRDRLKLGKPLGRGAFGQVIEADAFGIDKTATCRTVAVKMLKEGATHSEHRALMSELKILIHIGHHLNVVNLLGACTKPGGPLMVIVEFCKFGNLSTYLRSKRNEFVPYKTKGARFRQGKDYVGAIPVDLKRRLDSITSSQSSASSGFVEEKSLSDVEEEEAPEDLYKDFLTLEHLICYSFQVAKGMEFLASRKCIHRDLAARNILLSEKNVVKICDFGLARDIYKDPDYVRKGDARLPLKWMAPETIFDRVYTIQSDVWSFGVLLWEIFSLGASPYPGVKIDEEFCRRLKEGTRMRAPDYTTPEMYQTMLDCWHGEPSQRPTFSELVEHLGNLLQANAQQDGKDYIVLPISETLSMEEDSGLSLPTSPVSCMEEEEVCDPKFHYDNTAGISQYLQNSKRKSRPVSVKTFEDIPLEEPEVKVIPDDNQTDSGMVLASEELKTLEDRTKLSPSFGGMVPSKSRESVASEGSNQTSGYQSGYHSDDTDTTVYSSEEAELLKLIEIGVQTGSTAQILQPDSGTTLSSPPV
Chain of TGFbR2 (P37173 23-567, species assumed): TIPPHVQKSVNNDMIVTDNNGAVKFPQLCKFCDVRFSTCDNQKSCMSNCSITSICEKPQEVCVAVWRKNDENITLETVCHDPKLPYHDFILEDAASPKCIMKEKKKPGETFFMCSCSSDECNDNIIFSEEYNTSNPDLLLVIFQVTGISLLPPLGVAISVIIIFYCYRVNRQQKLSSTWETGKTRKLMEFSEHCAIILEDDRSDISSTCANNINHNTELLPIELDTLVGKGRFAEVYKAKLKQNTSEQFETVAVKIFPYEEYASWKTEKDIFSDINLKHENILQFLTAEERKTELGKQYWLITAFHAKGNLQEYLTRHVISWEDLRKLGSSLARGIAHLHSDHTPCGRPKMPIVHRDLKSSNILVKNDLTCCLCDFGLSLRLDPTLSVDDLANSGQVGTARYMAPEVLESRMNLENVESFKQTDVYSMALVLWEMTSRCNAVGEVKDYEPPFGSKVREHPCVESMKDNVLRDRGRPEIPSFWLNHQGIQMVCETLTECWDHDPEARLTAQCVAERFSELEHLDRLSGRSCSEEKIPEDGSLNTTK
Chain of ALK1/ACVRL1 (P37023 22-503): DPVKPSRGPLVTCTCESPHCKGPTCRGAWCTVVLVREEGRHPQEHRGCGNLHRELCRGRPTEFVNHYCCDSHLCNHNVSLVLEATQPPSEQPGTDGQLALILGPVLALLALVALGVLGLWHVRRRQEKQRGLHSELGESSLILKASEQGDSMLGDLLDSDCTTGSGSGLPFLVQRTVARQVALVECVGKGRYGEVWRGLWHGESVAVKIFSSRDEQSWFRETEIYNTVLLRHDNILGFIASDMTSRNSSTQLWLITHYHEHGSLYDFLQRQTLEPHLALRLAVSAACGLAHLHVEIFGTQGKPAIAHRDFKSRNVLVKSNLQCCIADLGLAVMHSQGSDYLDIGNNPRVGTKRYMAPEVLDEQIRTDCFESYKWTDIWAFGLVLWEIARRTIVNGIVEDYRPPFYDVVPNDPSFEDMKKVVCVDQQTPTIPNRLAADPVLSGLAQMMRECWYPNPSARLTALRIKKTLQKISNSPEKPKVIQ
Chain of PDGFRb (P09619 33-1106, species assumed): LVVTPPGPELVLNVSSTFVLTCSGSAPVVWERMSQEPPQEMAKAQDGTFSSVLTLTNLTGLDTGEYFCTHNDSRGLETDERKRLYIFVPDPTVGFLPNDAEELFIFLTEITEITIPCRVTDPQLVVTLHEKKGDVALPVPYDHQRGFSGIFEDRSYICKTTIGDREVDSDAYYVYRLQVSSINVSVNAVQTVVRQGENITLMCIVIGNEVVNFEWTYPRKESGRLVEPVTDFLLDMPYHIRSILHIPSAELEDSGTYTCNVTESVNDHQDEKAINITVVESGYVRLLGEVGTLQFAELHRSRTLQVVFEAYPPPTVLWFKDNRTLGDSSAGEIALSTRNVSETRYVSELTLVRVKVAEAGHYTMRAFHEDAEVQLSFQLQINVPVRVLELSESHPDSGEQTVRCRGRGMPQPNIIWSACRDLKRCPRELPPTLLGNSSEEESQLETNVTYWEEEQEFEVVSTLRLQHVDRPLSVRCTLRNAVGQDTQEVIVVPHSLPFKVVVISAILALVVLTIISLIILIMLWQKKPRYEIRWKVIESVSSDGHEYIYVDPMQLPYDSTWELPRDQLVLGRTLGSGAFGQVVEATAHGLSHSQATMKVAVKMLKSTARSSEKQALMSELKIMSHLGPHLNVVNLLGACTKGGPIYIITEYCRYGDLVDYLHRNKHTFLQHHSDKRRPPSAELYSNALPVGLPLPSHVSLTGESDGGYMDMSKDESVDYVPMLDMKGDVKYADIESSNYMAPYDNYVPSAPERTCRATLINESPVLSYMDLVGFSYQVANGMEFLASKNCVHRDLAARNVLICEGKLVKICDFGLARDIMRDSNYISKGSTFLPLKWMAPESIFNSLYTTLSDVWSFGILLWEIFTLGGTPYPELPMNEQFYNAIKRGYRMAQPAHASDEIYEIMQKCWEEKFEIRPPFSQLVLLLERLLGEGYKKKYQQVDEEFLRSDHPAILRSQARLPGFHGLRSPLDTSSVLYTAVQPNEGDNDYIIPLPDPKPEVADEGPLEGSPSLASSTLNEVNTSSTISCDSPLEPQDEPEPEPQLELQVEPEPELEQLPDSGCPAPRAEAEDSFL

Regarding `Cc1cc(-c2cnc3cc(-c4ccc(C5CNCCN5)cc4)ccn23)c2cc(F)ccc2n1` (centres unmarked) [Compound 17], the IC50 on ALK1/ACVRL1 is 89.2 nM; on ALK3/BMPR1A, under 5.1 nM; at ALK4, 390 nM; on ALK5, 717 nM; on ALK6, 188 nM; at BMPR2, over 100000 nM. Also, the IC50 on TGFbR2 was determined as 498 nM; at KDR it was 36900 nM; at PDGFRb, 6930 nM; in [1] (Mus musculus, C2C12, C2C12 cells) it was 29.6 nM. The CLint scaled in data set [2] (setting [4]) is 14 mL/min/kg; in data set [2] (read-out: Intrinsic Clearance Human) it was 46.7 mL/min/kg; in data set [3] (CL-Hep, value in parentheses, read-out: Intrinsic Clearance Mouse (CL-Hep)), under 32.9 mL/min/kg; in data set [3] (read-out: Intrinsic Clearance Mouse), under 49.5 mL/min/kg. Besides, in “Protein binding, human”, the “Protein Binding (% Free) Human” value amounted to 10.3 % Free. In addition, the “Protein Binding (% Free) Mouse” value in the data set “Protein binding, mouse” came out at 8.52 % Free.

Regarding `Cc1cc(-c2cnc3cc(-c4ccc(C5CNCCN5)cc4)ccn23)c2cc(F)ccc2n1` (centres unmarked) [Compound 18], the IC50 at ALK1/ACVRL1 was 16.4 nM; at ALK3/BMPR1A it was under 5.1 nM; on ALK4 it was 386 nM; at ALK5, 456 nM; on ALK6 it was 231 nM; on BMPR2 it was over 100000 nM. The IC50 at TGFbR2 was 2680 nM; at KDR it was 31400 nM; at PDGFRb, 6490 nM; in data set [1] (C2C12 cells), 34.9 nM. Besides, the “Intrinsic Clearance Human (CL-Hep)” value in data set [2] (CL-Hep, value in parentheses) was “(12.4) mL/kg/min”. The “Intrinsic Clearance Mouse” value in data set [3] was under 49.5 mL/min/kg. Besides, the “Intrinsic Clearance Mouse (CL-Hep)” value in [3] (CL-Hep, value in parentheses) is listed as “(<32.94) mL/kg/min”. For the same compound, the “Protein Binding (% Free) Human” value in “Protein binding, human” is 7.33 % Free. In addition, the “Protein Binding (% Free) Mouse” value in “Protein binding, mouse” is given as 5.48 % Free.

Consider `Cc1cc(-c2cnc3cc(-c4ccc(C5COCCN5)cc4)ccn23)c2cc(F)cc(F)c2n1` (centres unmarked) [Compound 22], for which the IC50 at ALK1/ACVRL1 is 72.1 nM; on ALK3/BMPR1A, under 5.1 nM; at ALK4 it was 113 nM; on ALK5, 232 nM; at ALK6, 128 nM; at BMPR2, over 50000 nM. The IC50 at TGFbR2 is 388 nM; on KDR, 39300 nM; at PDGFRb, 5200 nM. The CLint scaled in data set [2] (setting [4]) came to 17.5 mL/min/kg.

For the origin of these results see patent publication US10745400B2, “Inhibition of BMP signaling, compounds, compositions and uses thereof” (Vanderbilt University, priority 2018, dated 2020).
